Measured values published in the COVID Moonshot data (paper PMC7615835).
“And” between values parts separate entries of the source, which are not always exact repeats. Identical values can stand only once.

What follows are molecules tested against SARS-CoV-2 Main Protease (SARS-CoV-2) (UniProt P0DTD1).

SMILES	IC50
CC(C)=CCC/C(C)=C/CC/C(C)=C/CC/C(C)=C/Cc1cc(O)cc2c1OC(=O)C2=C(C)C	> 99.5 µM
CNC(=O)CN1CC2(CCN(c3cncc4cc(F)ccc34)C2=O)c2cc(Cl)ccc2C1=O (stereo not given)	0.426 µM
Cc1ccncc1NC(=O)Cc1ccccc1N	> 99.5 µM
Cc1ccncc1NC(=O)Cc1cc(Cl)cc(OCc2cc(-c3ccc(Cl)cc3)no2)c1	> 99.5 µM
Cc1cnoc1C(=O)N(c1ccc(C(C)(C)C)cc1)C(C(=O)NCCc1cccc(F)c1)c1cccnc1 (stereo not given)	> 99.5 µM
Cc1c(Br)cccc1Nc1cc(Cl)cc(CC(=O)Nc2cncc3ccccc23)c1	2.13 µM
Cc1ccncc1N(CC#N)C(=O)Cc1cccc(Cl)c1	> 99.5 µM
CNC(=O)CN1CC2(CCN(c3cncc4ccccc34)C2=O)c2cc(Cl)ccc2S1(=O)=O (stereo not given)	0.275 µM
O=C(Cc1cc(Cl)cc(Nc2ccc3c(c2)OC(F)(F)O3)c1)Nc1cncc2ccccc12	2.07 µM
Cn1nc2c(c1C(=O)N(c1ccc(C(C)(C)C)cc1)C(C(=O)NCCc1cccc(F)c1)c1cccnc1)CS(=O)(=O)CC2 (stereo not given)	> 99.5 µM
O=C(Cc1cccc(Cl)c1)Nc1cncc2c1CCCN2	7.27 µM
CN(C)C(=O)CNC(=O)C(c1cccnc1)N(C(=O)c1cocn1)c1ccc(C(C)(C)C)cc1 (stereo not given)	29.2 µM
COc1ccn2c(NC(=O)Cc3cccc(Cl)c3)cnc2c1	> 99.5 µM
CC1(C)Nc2ccccc2C1NC(=O)Cc1cccc(Cl)c1 (stereo not given)	> 99.5 µM
CC1(CS(=O)(=O)N2Cc3ccc(Cl)cc3C(C(=O)Nc3cncc4cccc(Cl)c34)C2)CS(=O)(=O)C1 (stereo not given)	0.957 µM
C=CC(=O)N(Cc1ccccc1Cl)C(C(=O)NC(C)(C)C)c1cccnc1 (stereo not given)	> 99.5 µM
O=C(Cc1cccc(Cl)c1)Nc1cncc2cnoc12	23.9 µM
Nc1nn(C(=O)C2CCOc3ccc(Cl)cc32)c2ccncc12 (stereo not given)	87.2 µM
Cc1ccc(C(=O)Nc2c(-c3cnn(C)c3)nc3ccccn23)cn1	> 99.5 µM
O=C(Cc1cc(Cl)cc(Nc2ncc(Br)cc2O)c1)Nc1cncc2ccccc12	3.23 µM
Cc1ccncc1NC(=O)N(Cc1ccccc1)c1cccc(Cl)c1	22.9 µM
COC1(CS(=O)(=O)N2Cc3ccc(Cl)cc3C3(CCN(c4cncc5cc(S(C)(=O)=O)ccc45)C3=O)C2)CC1 (stereo not given)	0.413 µM
CCOc1ccc(N(C(=O)c2cocn2)C(C(=O)NCCc2cccc(F)c2)c2cccnc2)cc1 (stereo not given)	15.5 µM
O=C(Cc1cc(Cl)cc(Nc2cccc(F)c2[N+](=O)[O-])c1)Nc1cncc2ccccc12	1.99 µM
O=C(CCl)N1CC2CC1CN2Cc1cccc(Cl)c1 (stereo not given)	2.17 µM

SMILES	IC50
O=CN1CCC(OC(=O)c2c[nH]nc2-c2ccc(Cl)cc2)CC1	> 99.5 µM
Cc1cnnn1-c1ccc(N(C(=O)c2cocn2)C(C(=O)NCCc2cccc(F)c2)c2cccnc2)cc1 (stereo not given)	28.4 µM
COC(=O)[C@H]1CC[C@@H](CNC(C(=O)Nc2cncc3ccccc23)c2cccc(Cl)c2)O1 (stereo in doubt)	1.72 µM
CC(C)(C)c1ccc(N(C(=O)c2cscn2)C(C(=O)NCCc2cccc(F)c2)c2cccnc2)cc1 (stereo not given)	0.891 µM
O=C(Cc1cc(Cl)cc(Nc2cnc(Cl)c(Br)c2)c1)Nc1cncc2ccccc12	3.08 µM
O=C1Cc2ccccc2N(C(=O)Cc2cccc(Cl)c2)C1	> 99.5 µM
CCCNC(=O)CN1CC(C(=O)Nc2cncc3cc(S(C)(=O)=O)ccc23)c2cc(Cl)ccc2C1=O (stereo not given)	0.127 µM and 0.209 µM
O=C(Cn1ccc(=O)[nH]c1=O)OCc1ccc(-c2ccccc2)cc1	> 99.5 µM
CC(=O)Nc1ccc(Nc2cc(Cl)cc(CC(=O)Nc3cncc4ccccc34)c2)c(C(F)(F)F)c1	2.09 µM
O=C(COc1cccc(Cl)c1)Nc1cncc2ccccc12	11.2 µM
Nc1cccc(C2CN(C(=O)CCl)Cc3ccccc32)c1 (stereo not given)	9.23 µM
CC(C)(C)c1ccc(N(C(=O)c2cocn2)C(C(=O)NCCc2cnc[nH]2)c2cccnc2)cc1 (stereo not given)	14.5 µM
O=C(Nc1cncc2cc(F)ccc12)[C@H]1CCS(=O)(=O)c2ccc(Cl)cc21 (stereo in doubt)	24.5 µM
N#CC1(CS(=O)(=O)N2Cc3ccc(Cl)cc3[C@H](C(=O)Nc3cncc4ccccc34)C2)CCOCC1 (stereo in doubt)	0.06 µM and 0.0875 µM
COc1ccc(C2CC(c3cccs3)=NN2C(=O)CCl)cc1OC (stereo not given)	1.75 µM and 2 µM
O=C(Cc1cc(Cl)cc(N2CCN(c3ccccc3[N+](=O)[O-])CC2)c1)Nc1cncc2ccccc12	4.01 µM
O=C(NCCc1cccc(F)c1)C(c1cccnc1)N(C(=O)c1cocn1)C1CCc2cc(F)ccc21 (stereo not given)	> 99.5 µM
O=C1N(c2cncc3ccccc23)CCC12CN(S(=O)(=O)CC1CS(=O)(=O)C1)Cc1ccc(Cl)cc12 (stereo not given)	0.353 µM
O=C(Cc1cccc(Cl)c1)Nc1cnccc1C(=O)O	> 99.5 µM
CC(NC(=O)c1cc2n(n1)CCO2)(C(=O)Nc1cncc2ccccc12)c1ccc(Cl)c(Cl)c1 (stereo not given)	6.89 µM and 10.5 µM
C=CC(=O)NCc1ccc(C(=O)N[C@H](CO)c2ccc(Br)c(F)c2)cc1 (stereo in doubt)	> 99.5 µM
CC(C)(C)c1ccc(N(C(=O)c2cn(C3COCC3=O)nn2)C(C(=O)NCCc2cccc(F)c2)c2cccnc2)cc1 (stereo not given)	19.5 µM
CC1(C)OB(c2cnc(C#N)nc2)OC1(C)C	> 99.5 µM
O=C1NC(c2ccc(Cl)c(Cl)c2)C(=O)N1c1cncc2ccccc12 (stereo not given)	8.46 µM
O=C(c1cc(=O)cc[nH]1)N1CCN(c2cccc(Cl)c2)CC1	> 99.5 µM

SMILES	IC50
O=C(Cc1cc(Cl)cc(N2CCN(c3ccccc3O)CC2)c1)Nc1cncc2ccccc12	1.85 µM
CN(CCC#N)S(=O)(=O)N1Cc2ccc(Cl)cc2C2(CCN(c3cncc4ccccc34)C2=O)C1 (stereo not given)	0.613 µM
O=C(Nc1ccc(Cl)cc1)[C@@H](c1ccccc1)N1Cc2ccccc2C1=O (stereo in doubt)	> 99.5 µM
CCC(C)c1ccc(C(NCC(=O)Nc2ccc3[nH]c(=O)[nH]c3c2)c2cccs2)cc1 (stereo not given)	> 99.5 µM
Cc1cc(C)n2ncc(C(=O)Nc3ccc4ncsc4c3)c2n1	> 99.5 µM
O=C(NCCc1cccc(F)c1)C(c1cccnc1)N(C(=O)c1cnc[nH]1)C1CCCCCC1 (stereo not given)	> 99 µM
CC(C)(C)c1ccc(N(C(=O)c2coc(CS(C)(=O)=O)n2)C(C(=O)NCCc2cccc(F)c2)c2cccnc2)cc1 (stereo not given)	39.2 µM
O=C(Cc1cc(Cl)cc(Nc2ccc(C(F)(F)F)cc2[N+](=O)[O-])c1)Nc1cncc2ccccc12	2.24 µM
COC(CNC(=O)C(c1cccnc1)N(C(=O)c1cocn1)c1ccc(C(C)(C)C)cc1)OC (stereo not given)	7.91 µM
CCCc1cc2c(cc1S(=O)(=O)N1CCN(c3ncccn3)CC1)OCO2	> 99.5 µM
O=C(Cc1cc(Cl)cc(Nc2cnc(Br)c(Cl)n2)c1)Nc1cncc2ccccc12	1.94 µM
Cc1nc2sccn2c1CN(C)C(=O)c1cnc2sccn2c1=O	> 99.5 µM
CC(CCC(OC1OC(COC2OC(CO)C(O)C(O)C2O)C(O)C(O)C1O)C(C)(C)O)C1CCC2(C)C3CC=C4C(CCC(O)C4(C)C)C3(C)C(O)CC12C (stereo not given)	> 99.5 µM
O=C(CCc1cccc(Cl)c1)Nc1cncc2ccccc12	20.8 µM
O=C(Cc1cc(Cl)cc(N[C@@H](CO)Cc2ccccc2)c1)Nc1cncc2ccccc12 (stereo in doubt)	2.5 µM
O=C(Cc1cccc(Cl)c1)Nc1n[nH]c2ccnc(Br)c12	> 99.5 µM
C[C@@H](C(=O)Nc1cncnc1)c1ccccc1 (stereo in doubt)	> 99.5 µM
O=C(Cc1cc(Cl)cc(N(C(=O)c2ccccc2)C2CCNCC2)c1)Nc1cncc2ccccc12	2.14 µM
O=C(Cc1cc(Cl)cc(Nc2ccncc2Br)c1)Nc1cncc2ccccc12	2.18 µM
O=C(Cc1cc(Cl)cc(Nc2cccc(I)c2)c1)Nc1cncc2ccccc12	2.22 µM
O=C(Cc1cc(Cl)cc(N2CCN(C(=O)C3CC3)CC2)c1)Nc1cncc2ccccc12	2.01 µM
COc1ncc(Nc2cc(Cl)cc(CC(=O)Nc3cncc4ccccc34)c2)cc1Br	1.74 µM
O=C(Nc1cncc2ccccc12)C1CCOc2c(OCC3CC3)cc(Cl)cc21 (stereo not given)	> 2.49 µM
O=C(Cc1cccc(Cl)c1)Nc1c(O)cnc2ccccc12	8.44 µM
Cc1noc2ncc(CNc3ccc(-c4nnnn4C)cc3)cc12	> 99.5 µM

SMILES	IC50
CC(C)(C)c1ccc(N(C(=O)c2cocn2)C(C(=O)NCCc2cccc(F)c2)c2cc(=O)[nH]c3ccccc23)cc1 (stereo not given)	1.16 µM
C=CC(=O)N(c1ccc(C(C)(C)C)cc1)C(C(=O)Nc1ccc2c(c1)OCO2)c1cccnc1 (stereo not given)	36.1 µM
COc1cc2cncc(NC(=O)Cc3cccc(Cl)c3)c2cc1OC	> 99.5 µM
CCC(=O)Nc1ccc(N(Cc2cscn2)C(=O)Cn2nnc3ccccc32)cc1	25 µM
O=C(Cc1cc(Cl)cc(Nc2cccnc2Br)c1)Nc1cncc2ccccc12	2.08 µM
Cn1ccc2cc(N(C(=O)c3cocn3)C(C(=O)NCCc3cccc(F)c3)c3cccnc3)ccc21 (stereo not given)	23.8 µM
Cc1cc(F)cc2cncc(NC(=O)Cc3cccc(Cl)c3)c12	0.851 µM
Cc1cc(C)c(C#N)c(Sc2ncnc3c2nnn3Cc2ccccc2)n1	0.649 µM
CN(C)CCCOc1ccc2cncc(N3CCC4(CN(S(=O)(=O)CC5(C#N)CC5)Cc5ccc(Cl)cc54)C3=O)c2c1 (stereo not given)	0.149 µM
N#CC1(CS(=O)(=O)N2Cc3ccc(Cl)cc3C(C(=O)Nc3cncc4c[nH]nc34)C2)CC1 (stereo not given)	1.05 µM
CC(=O)NCCc1c[nH]c2ccc(O)cc12	> 99.5 µM
COc1cc(Nc2cc(Cl)cc(CC(=O)Nc3cncc4ccccc34)c2)ccc1Br	1.89 µM
O=C(Cc1cc(Cl)cc(NCc2cc(Cl)cc(Cl)c2)c1)Nc1cncc2ccccc12	1.72 µM
O=C(Cc1cc(Cl)cc(Nc2c(Cl)c(F)nc(F)c2Cl)c1)Nc1cncc2ccccc12	2.16 µM
O=C(Nc1cncc2ccccc12)C1CCOc2c(OCCC(F)(F)F)cc(Cl)cc21 (stereo not given)	3.14 µM
CC(NCc1cnc2c(cnn2C)c1)c1nc2ccccc2s1 (stereo not given)	> 99.5 µM
Cc1ccncc1NC(=O)C(C)(C)c1cccc(Cl)c1	95.8 µM and 98.1 µM
Cc1ccncc1NC(=O)CCc1cccc(F)c1	58.5 µM
Cn1ccc2cncc(NC(=O)Cc3cccc(Cl)c3)c21	1.45 µM
COc1cc2cncc(NC(=O)Cc3cccc(Cl)c3)c2cc1F	> 99.5 µM
CN1CCN(c2ccc(Nc3cc(Cl)cc(CC(=O)Nc4cncc5ccccc45)c3)cc2F)CC1	2.8 µM
Cc1ccc(-n2c(C)c(C)n3c4c(=O)n(CCCO)c(=O)n(C)c4nc23)cc1Cl	> 99.5 µM
CNC(=O)CN1Cc2ccc(Cl)cc2C2(CCN(c3cncc4cccc(Cl)c34)C2=O)C1 (stereo not given)	3.28 µM
COc1ccc2c(N)nn(C(=O)Cc3cccc(Cl)c3)c2c1	> 99.5 µM
Cc1nc(-c2cccc(NCc3ccccc3C)c2)n[nH]1	> 99.5 µM
